The text below walks through data of patent publication US10858360B2, “Tricyclic gyrase inhibitors” (priority 2011, dated 2020).

Converted amounts (≈) assume the structure as drawn.

The subject of test [1] is E. coli ATCC 25922. Put plainly: MIC, E. coli ATCC 25922. The test is classed as cell-based. Particulars: Alamar Blue read after overnight incubation at 35° C.; for MIC: Escherichia coli, ATCC25922, E. coli; for MIC Ec: E. coli.
In test [2] the test system is S. aureus ATCC 13709. As to the kind of experiment: MIC, S. aureus ATCC 13709 (Alamar Blue broth microdilution). The test is classed as cell-based. Particulars: Alamar Blue read after overnight incubation at 35° C.; for MIC: Staphylococcus aureus, ATCC13709, S. aureus; for MIC Sa: S. aureus. For orientation: Resazurin is reduced to fluorescent resorufin, in cell work by metabolically active cells.

For the compound `Cc1ncc(Oc2nc(N3C[C@H](N)C4(CC4)C3)c3c(n2)[nH]c2c(N(C)C(=O)[C@H](C)NC(=O)[C@H](C)N)cc(F)cc23)cn1` [4.425], the MIC in test [1] and in test [2] was > 16 µg/mL in each case.
Turning to `CNc1cc(F)cc2c1[nH]c1nc(Oc3cnc(C)nc3)nc(N3CC4(CC(N)C4)C3)c12` [4.153], the “MIC Ec” value in test [1] is 2 µg/mL (≈ 4.6 µM). Besides, the “MIC Sa” value in test [2] is ≤0.5 µg/mL.
Take `CNc1cccc2c1[nH]c1nc(Oc3cncnc3)nc(N3CCN(CCN4CCOCC4)CC3)c12` [3.60]: the minimum inhibitory concentration (MIC) in test [1] was > 64 µg/mL; in test [2] it was 8 µg/mL (≈ 16.3 µM).
On the same counts, the results for `CNc1cccc2c1[nH]c1nc(Oc3cncc(OC)c3)nc(N3CC4C(N)C4C3)c12` (stereo not drawn) [3.35] are 1 µg/mL (≈ 2.4 µM) and ≤ 0.5 µg/mL.
On to `CNc1cccc2c1[nH]c1nc(Sc3cncnc3)nc(N3CC(N)C4(CC4)C3)c12` (stereo not drawn) [1.44], for which the minimum inhibitory concentration (MIC) in test [1] stood at 2 µg/mL (≈ 4.78 µM); in test [2] it was 1 µg/mL (≈ 2.39 µM).
With `CNc1cc(F)cc2c1[nH]c1nc(Oc3cnc(C(C)(C)N)nc3)nc(N3C[C@H]4CC3C[C@H]4N)c12` [4.442], the values for the minimum inhibitory concentration (MIC) in test [1] and in test [2] were 2 µg/mL (≈ 4.19 µM) and 1 µg/mL (≈ 2.09 µM), respectively.
Take `CNc1cc(F)cc2c1[nH]c1nc(Oc3cnc(C)nc3)nc(N3CC(N)C(C(=O)NCCN4CCOCC4)C3)c12` (stereo not drawn) [4.440]: the minimal inhibitory concentration (MIC) was > 16 µg/mL in test [1] and 16 µg/mL (≈ 28.3 µM) in test [2].
For `CNc1cccc2c1[nH]c1nc(Sc3cnc4cccnc4c3)nc(N3CC(N)C3)c12` [1.29] the same measures were > 64 µg/mL and 1 µg/mL (≈ 2.33 µM).
As to `CNc1cc(F)cc2c1[nH]c1nc(Oc3cnc(C)nc3)nc(N3C[C@H](N)[C@@H](O)C3)c12` [4.136], the “MIC Ec” value in test [1] worked out at 8 µg/mL (≈ 18.8 µM). Also, the “MIC Sa” value in test [2] is 2 µg/mL (≈ 4.71 µM).
For `CCOC1CN(c2nc(Oc3cnc(C)nc3)nc3[nH]c4c(NC)cc(F)cc4c23)CC1N` (mixture of isomers) [4.147], the “MIC Ec” value in test [1] stood at 1 µg/mL. Further, the “MIC Sa” value in test [2] is ≤0.5 µg/mL.
Take `CNc1cc(F)cc2c1[nH]c1nc(Oc3cnc(C(C)(C)C)nc3)nc(N3C[C@H](N)C4(CC4)C3)c12` [4.315]: the minimum inhibitory concentration (MIC) in test [1] and in test [2] was ≤ 0.5 µg/mL throughout.
Take `NC1C2CN(c3nc(Sc4cnc5cccnc5c4)nc4[nH]c5c(NC6CC6)cc(F)cc5c34)CC12` (stereo not drawn) [1.1]: the figures for the MIC in test [1] and in test [2] were 64 µg/mL (≈ 128 µM) and 4 µg/mL (≈ 8.02 µM), respectively.
On to `CNc1cc(F)cc2c1[nH]c1nc(Oc3cnc(C)nc3)nc(N3CCC4CNC4C3)c12` (stereo not drawn) [4.081], for which the “MIC Ec” value in test [1] worked out at 1 µg/mL (≈ 2.3 µM). The “MIC Sa” value in test [2] was ≤0.5 µg/mL.
Consider `CNc1cccc2c1[nH]c1nc(Oc3cncnc3)nc(N3CCC[C@@H](N)C3)c12` [3.16], for which the MIC in test [1] and in test [2] was 4 µg/mL (≈ 10.2 µM) in each case.
As for `CNc1cc(F)cc2c1[nH]c1nc(Oc3cnc(C)nc3)nc(N3CC4CNC4C3)c12` (stereo not drawn) [4.067], the MIC in test [1] and in test [2] was ≤ 0.5 µg/mL throughout.
In the case of `CNc1cc(F)cc2c1[nH]c1nc(Oc3cnc(CN)nc3)nc(N3CC4CC(N)C4C3)c12` (stereo not drawn) [4.394], in test [1], the “MIC Ec” value was ≤0.5 µg/mL. For the same compound, the “MIC Sa” value in test [2] is ≤0.5 µg/mL.
For the compound `CNc1cc(F)cc2c1[nH]c1nc(Oc3cncc(-c4nnnn4C)c3)nc(N3CC[C@@H](N)C3)c12` [4.169], the MIC in test [1] turned out to be 8 µg/mL (≈ 16.8 µM); in test [2], 2 µg/mL (≈ 4.21 µM).
Consider `CNc1cc(F)cc2c1[nH]c1nc(Oc3cnc(CO)nc3)nc(N3C[C@@H]4C[C@H]3C[C@@H]4N)c12` [4.391], for which the MIC in test [1] and in test [2] was ≤ 0.5 µg/mL in each case.
With `CNc1cccc2c1[nH]c1nc(Oc3cnc4cccnc4c3)nc(N3CC4C(N)C4C3)c12` (stereo not drawn) [3.34], the MIC in test [1] and in test [2] was ≤ 0.5 µg/mL in each case.
As for `CNc1cc(F)cc2c1[nH]c1nc(Oc3cnc4c(c3)C(=O)N(C)C4C)nc(N3CC4CC3C[C@@H]4N)c12` (stereo partly drawn) [4.398], the MIC in test [1] and in test [2] was ≤ 0.5 µg/mL in each case.
Turning to `CNc1cccc2c1[nH]c1nc(Oc3cncc(C(N)=O)c3)nc(N3CC4C(N)C4C3)c12` (stereo not drawn) [3.19], the results for the MIC in test [1] and in test [2] were 32 µg/mL (≈ 74.3 µM) and 8 µg/mL (≈ 18.6 µM), respectively.
Take `CNc1cc(F)cc2c1[nH]c1nc(Oc3cncnc3)nc(N3CCC4(CC4N)C3)c12` (stereo not drawn) [4.003]: the MIC in test [1] and in test [2] was ≤ 0.5 µg/mL throughout.
For `CNc1cc(F)cc2c1[nH]c1nc(Oc3cnc(C)nc3)nc(N3CC[C@@H](N)C3)c12` [4.070], the MIC was 1 µg/mL (≈ 2.45 µM) in test [1] and ≤ 0.5 µg/mL in test [2].
For the compound `CNc1cc(F)cc2c1[nH]c1nc(Oc3cnc(C)nc3)nc(N3CC4(CC4N)C3)c12` (stereo not drawn) [4.096], the “MIC Ec” value in test [1] was ≤0.5 µg/mL. Besides, the “MIC Sa” value in test [2] was ≤0.5 µg/mL.
For `CNc1cccc2c1[nH]c1nc(Sc3cnc4nccnc4c3)nc(N3CC[C@H](N)C3)c12` [1.15], the MIC in test [1] amounted to 2 µg/mL (≈ 4.51 µM); in test [2], 1 µg/mL (≈ 2.25 µM).
Take `COc1cccc2c1[nH]c1nc(Sc3cnc4nccnc4c3)nc(N3CC4C(N)C4C3)c12` (stereo not drawn) [1.76]: the MIC is > 64 µg/mL in test [1] and 1 µg/mL (≈ 2.19 µM) in test [2].
Turning to `CNc1cccc2c1[nH]c1nc(Sc3cnc4cccnc4c3)nc(N3CCN(c4cnccn4)CC3)c12` [1.54], the results for the MIC in test [1] and in test [2] were > 64 µg/mL and ≤ 0.5 µg/mL, respectively.

A word on the MIC: it is the lowest concentration found to suppress growth. Read a high MIC as weaker potency.
